Laboratory results taken from patent US10039838B2, “Car peptide for homing, diagnosis and targeted therapy for pulmonary and fibrotic disorders” (Vascular BioSciences, priority 2010, dated 2018).
Entries after “also recorded” stand apart in the source; their conditions may differ. Primed or numbered codes have the meaning given here. Where no end group is shown, it is not given here. The star is where a group is joined. 5FAM = O=C1OC2(c3ccc(O)cc3Oc3cc(O)ccc32)c2ccc(C(=O)*)cc21; 5FAM′ = not defined here

Experiments:
[1] = tested on: MCT induced hypertensive rat lung; assay: Peptide targeting study in monocrotaline (MCT)-induced pulmonary arterial hypertension, immunohistochemistry; assay type: in vivo; details: peptide 3.3 mg/kg via tail vein, 2 hours after injection, FIG. 4
Experimental: A rat model of monocrotaline (MCT)-induced pulmonary arterial hypertension was used for this study. Briefly, male Sprague-Dawley rats (150-200 g, Harlan Laboratories, IN) were administered with a single subcutaneous injection of monocrotaline at 60 mg/kg (Sigma-Aldrich, MO), while control rats were administered 0.9% saline (FIG. 1). Rats were randomly selected and studied for peptide distribution studies on 1, 3, 7, 14 or 21 days after the treatment of monocrotaline.
(§1) The following peptides were labeled with 5-carboxyfluorescein (5FAM) and used for the lung targeting studies: CAR, 5FAM-CARSKNKDC; VCAM1, CVHSPNKKCGGSK-5FAM; Control, 5FAM-CGGGGGGGC. All peptides were synthesized by Anaspec (Anaspec Inc., CA). Peptides were resolved in PBS at the concentrations of 0.5 mg/mL.
MCT-treated or untreated rats were injected with peptide solution at a dose of 3.3 mg/kg body weight via the tail vein. […]
To determine the localization of the peptides, paraffin-embedded tissue sections were immunostained with either hematoxylin and eosin (FIGS. 2-3) or rabbit anti-fluoroscein isothiocyanate (FITC) antibody (Invitrogen, CA) followed by horseradish peroxidase-labeled anti-rabbit IgG secondary antibody (FIG. 4). […] To quantify the targeting efficiency of the peptides to the lung, the immunostained sections were scanned by Aperio Scanscope XT and analyzed using ImageScope software (Aperio Technologies, CA).

[2] = tested on: severe occlusive PAH rat model; assay: Blood pressure tracing, fasudil with CARK; assay type: in vivo
Experimental: (§2) Severe occlusive PAH rat model was used. Animals were injected with SU5416 (20 mg/kg; SUGEN Inc), followed by 3 weeks hypoxia, then followed by 2-10 weeks normoxia.
The peptide administered was a 7 amino acid variant to the CAR peptide used in previous examples. This variant (CARK) consisted of the following sequence: CARSKNK (SEQ ID NO: 2). In these experiments, CARK was administered at a dose of 3 mg/kg and fasudil administered at 1 mg/kg.
To measure the acute effects of fasudil with CARK administration on the right and left ventricular systolic pressure (or systolic aortic pressure), blood pressure measurements were performed on catheterized SU5w/hypoxia/normoxia-exposed rats with PAH.

[3] = tested on: mouse lungs after bleomycin injection; assay: Peptide targeting study in bleomycin-induced acute lung injury and pulmonary fibrosis model, immunohistochemistry; assay type: in vivo; details: for Distribution of staining in mouse lungs, acute lung injury model / Distribution of staining in mouse lungs, pulmonary fibrosis model: peptide 3.3 mg/kg via tail vein, 2 hours; for Distribution of staining in mouse lungs, pulmonary fibrosis model: 14 days after bleomycin injection, FIGS. 15-17
Experimental: A mouse model of bleomycin induced acute lung injury and pulmonary fibrosis was used for this study. Briefly, 6 WT C57Bl/6 male mice, 8-12 weeks were weighed and anesthetized, and given bleomycin (BL) intratracheally at 4 U/kg. At 3 days (acute lung injury model) and 14 days (pulmonary fibrosis model) after BL injection, peptides were injected via the tail vein.
as §1
BL-treated mice were injected with peptide solution at a dose of 3.3 mg/kg body weight via the tail vein. At two hours after the injection, mice were perfused with PBS containing 1% bovine serum albumin under the deep anesthesia with isofluorane at a rate of 3.0% and euthanized. Tissues were fixed by systemic perfusion with 10% buffered formalin via right ventricle. The lung was inflated by injection of 10% formalin through the trachea. Various organs were excised from the rat and fixed for additional twenty four hours and processed for immunohistochemistry.
To determine the localization of the peptides, paraffin-embedded tissue sections were immunostained with rabbit anti-fluoroscein isothiocyanate (FITC) antibody (Invitrogen, CA) followed by horseradish peroxidase-labeled anti-rabbit IgG secondary antibody. The peptide localization was then visualized by diaminobenzidine (DAB). An automated staining system, Discovery XT (Ventana, Ariz.) was used. To quantify the targeting efficiency of the peptides to the lung, the immunostained sections were scanned by Aperio Scanscope XT and analyzed using ImageScope software (Aperio Technologies, CA) (FIGS. 14-17).

[4] = tested on: severe occlusive PAH rat model; assay: Blood pressure tracing, imatinib with CAR; assay type: in vivo; details: CAR 3 mg/kg + imatinib 10 mg/kg, FIG. 25
Experimental: as §2
The peptide administered was CAR, CARSKNKDC (SEQ ID NO: 1). In this experiment, CAR was administered at a dose of 3 mg/kg and imatinib administered at 10 mg/kg.
To measure the acute effects of imatinib with CAR administration on the right and left ventricular systolic pressure, blood pressure measurements were performed on catheterized SU5w/hypoxia/normoxia-exposed rats with PAH.

[5] = tested on: cell surface heparan sulfate and heparin; details: US 20090036349; Jarvinen and Ruoslahti 2007; cited from earlier work
[6] = 3 days after bleomycin injection, FIG. 14

5FAM-CARSKNKDC (cysteine pairing not given here) [CAR-FITC, CAR peptide labeled with 5-carboxyfluorescein, detected with anti-FITC antibody]
CAR-FITC staining of alveolar macrophages [1]: alveolar macrophages take up the stain

CARSKNK [CARK]
Effect of CARK co-administration with fasudil on systolic aortic pressure (SAP) ([2]; CARK 3 mg/kg + fasudil 1 mg/kg, compared to fasudil alone, FIG. 22): only a minor reduction in SAP
Effect of CARK co-administration with fasudil on LVSP ([2]; CARK 3 mg/kg + fasudil 1 mg/kg, compared to fasudil alone, FIG. 23): only a minor reduction
Effect of CARK co-administration on RVSP lowering by fasudil ([2]; CARK 3 mg/kg + fasudil 1 mg/kg, compared to fasudil alone, FIGS. 22-23): enhanced the blood pressure lowering effect of fasudil on RVSP
Effect on RVSP and LVSP of fasudil administered after cessation of CARK infusion ([2]; fasudil 10 mg/kg 30 minutes after cessation of CARK infusion, FIG. 24): sustained, pulmonary-specific effect

CARSKNKDC
Staining intensity of CAR compared with VCAM1, acute lung injury model [3, 6]: more intense
Distribution of staining in mouse lungs, acute lung injury model [3, 6]: stain the interstitium and inflammatory cells
Distribution of staining in mouse lungs, pulmonary fibrosis model [3]: Interstitial and inflammatory staining is seen in areas of lung fibrosis; also recorded: areas of dense fibrosis and spared areas showing little staining
Effect of CAR co-administration on RVSP lowering by imatinib [4]: enhanced the blood pressure lowering effect of imatinib on RVSP
Effect of CAR co-administration with imatinib on LVSP [4]: only a minor reduction in LVSP
Binding to cell surface heparan sulfate and heparin [5]: binds to cell surface heparan sulfate and heparin

CVHSPNKKCGGSK-5FAM (CVHSPNKKCGGSK-{5FAM′}; cysteine pairing not given here) [VCAM1, reference compound]
Distribution of staining in mouse lungs, acute lung injury model [3, 6]: stain the interstitium and inflammatory cells
Distribution of staining in mouse lungs, pulmonary fibrosis model [3]: areas of mild fibrosis and spared areas showing little staining
